{"source": "patent US20240299393A1", "about": "“SMALL MOLECULE DISRUPTORS OF PROTEIN INTERACTIONS IN HISTONE DEACETYLASE COMPLEXES” (Dana-Farber Cancer Institute, Inc., priority 2021, published 2024)", "key": {"[1]": {"test_system": "PAH1 and PAH3 domains of human SIN3A and SIN3B", "assay": "Ligand-detected NMR, human SIN3A and SIN3B PAH1 and PAH3", "assay_type": "binding, H. sapiens", "conditions": "FIG. 28", "procedure": "(§1) Ligand-detected NMR experiments: all results were acquired using a 3 mm tube at 25° C. on a Bruker 600 MHz Avance II system equipped with a CPPTCI cryoprobe (Bruker BioSpin Corp.). In all experiments, the concentration of E6R was fixed at 300 μM (from a stock of 25 mM in deuterated DMSO) and the concentration of the protein at 10 μM. The volume of deuterated DMSO was kept constant (1.5%) in all tested samples. Right before the experiments, the compound and protein were diluted in 1×PBS containing 0.1% deuterated dithiothreitol (DTT) to a total volume of 200 μL. Samples were diluted by 5% with D2O for magnetic field lock. Spectra were acquired for ligand only, protein only, and ligand+protein. […] STD experiments [Mayer et al 2001] were acquired with 160 scans, with protein irradiation applied for 3 s at 0 ppm and −20 ppm for the on and off resonance experiments, respectively. On and off resonance spectra were collected and stored separately. One-dimensional CPMG-R2 edited experiments [Hajduk et al 1997] were collected for samples with and without proteins using seven CPMG delays (0, 25, 50, 100, 300, 500, and 800 ms) with four scans per delay. Proton spectra used to measure DLB and chemical shift perturbations in the absence and presence of the proteins were recorded with 16 scans using a recycle delay of 3 s. […]"}, "human SIN3B PAH2 domain": {"molecular_target": "T1, human SIN3B PAH2 domain (Homo sapiens, UniProt O75182)", "T1 construct": "Residues 155-241 of human SIN3B (PAH2 domain) were inserted into the pMALC2XE vector for NMR experiments; made in house; host or cells: E. coli BL21 (DE3)", "T1 sequence (O75182 155-241)": "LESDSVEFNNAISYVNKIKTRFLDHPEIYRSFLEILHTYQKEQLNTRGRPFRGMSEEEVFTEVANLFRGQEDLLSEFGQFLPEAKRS", "assay": "Ligand-detected NMR, human SIN3B PAH2", "assay_type": "binding, H. sapiens", "conditions": "300 μM compound, 10 μM protein", "procedure": "as §1"}, "[2]": {"test_system": "HDAC-regulated genes in spleen and frontal cortex", "assay": "Pilot RT-qPCR in spleen and frontal cortex of treated mice", "assay_type": "in vivo, mouse", "conditions": "5, 15 or 50 mg/kg, chronic", "procedure": "For the pilot RT-qPCR experiment, in addition to the vehicle condition (ethanol 100%/kolliphor/saline 0.9% in a proportion of 1:1:14.4; for the 50 mg/kg dose, 14 μL NaOH 1M were also added), three doses (mg/kg) of E6R were tested: 5, 15, and 50, with 4 (vehicle) or 3 (E6R) animals per group. A dose of 50 mg/kg was picked to conduct further experiments. For the RNA-Seq experiment, E6R was dissolved in a vehicle solution containing saline 55% v/v, DMSO 34% v/v, ethanol 5% v/v, kolliphor EL (Sigma-Aldrich, MO, USA) 5% v/v, NaOH 1M 1% v/v. The vehicle group received the same solution. Animals were injected daily by intraperitoneal (I.P.) injection with 5 μL/g of the solution (50 mg/kg of the drug or vehicle) at 11 am for 10 days. Animal wellness was verified by daily visual inspection and weighing. […] On the 11th day, animals were sacrificed by bleeding via heart puncture under carbon dioxide anesthesia. The brains were quickly removed and the bilateral frontal cortex (bregma 1.90 to 1.40 mm) was dissected followed by total RNA extraction. The spleens were also collected in the pilot RT-qPCR experiments.\nQiagen™ RNeasy mini kits (Valencia, CA) were used following the manufacturer's protocol. […] Purity of the RNA preparation was determined as the 260/280 nm ratio with expected values between 2 and 2.3. […]"}, "[3]": {"molecular_target": "T2, SIN3A occupancy at the Homer1 promoter (Mus musculus, UniProt Q60520)", "T2 construct": "from tissue; host or cells: mouse frontal cortex (C57BL/6N, treated in vivo)", "T2 sequence (Q60520 whole entry)": "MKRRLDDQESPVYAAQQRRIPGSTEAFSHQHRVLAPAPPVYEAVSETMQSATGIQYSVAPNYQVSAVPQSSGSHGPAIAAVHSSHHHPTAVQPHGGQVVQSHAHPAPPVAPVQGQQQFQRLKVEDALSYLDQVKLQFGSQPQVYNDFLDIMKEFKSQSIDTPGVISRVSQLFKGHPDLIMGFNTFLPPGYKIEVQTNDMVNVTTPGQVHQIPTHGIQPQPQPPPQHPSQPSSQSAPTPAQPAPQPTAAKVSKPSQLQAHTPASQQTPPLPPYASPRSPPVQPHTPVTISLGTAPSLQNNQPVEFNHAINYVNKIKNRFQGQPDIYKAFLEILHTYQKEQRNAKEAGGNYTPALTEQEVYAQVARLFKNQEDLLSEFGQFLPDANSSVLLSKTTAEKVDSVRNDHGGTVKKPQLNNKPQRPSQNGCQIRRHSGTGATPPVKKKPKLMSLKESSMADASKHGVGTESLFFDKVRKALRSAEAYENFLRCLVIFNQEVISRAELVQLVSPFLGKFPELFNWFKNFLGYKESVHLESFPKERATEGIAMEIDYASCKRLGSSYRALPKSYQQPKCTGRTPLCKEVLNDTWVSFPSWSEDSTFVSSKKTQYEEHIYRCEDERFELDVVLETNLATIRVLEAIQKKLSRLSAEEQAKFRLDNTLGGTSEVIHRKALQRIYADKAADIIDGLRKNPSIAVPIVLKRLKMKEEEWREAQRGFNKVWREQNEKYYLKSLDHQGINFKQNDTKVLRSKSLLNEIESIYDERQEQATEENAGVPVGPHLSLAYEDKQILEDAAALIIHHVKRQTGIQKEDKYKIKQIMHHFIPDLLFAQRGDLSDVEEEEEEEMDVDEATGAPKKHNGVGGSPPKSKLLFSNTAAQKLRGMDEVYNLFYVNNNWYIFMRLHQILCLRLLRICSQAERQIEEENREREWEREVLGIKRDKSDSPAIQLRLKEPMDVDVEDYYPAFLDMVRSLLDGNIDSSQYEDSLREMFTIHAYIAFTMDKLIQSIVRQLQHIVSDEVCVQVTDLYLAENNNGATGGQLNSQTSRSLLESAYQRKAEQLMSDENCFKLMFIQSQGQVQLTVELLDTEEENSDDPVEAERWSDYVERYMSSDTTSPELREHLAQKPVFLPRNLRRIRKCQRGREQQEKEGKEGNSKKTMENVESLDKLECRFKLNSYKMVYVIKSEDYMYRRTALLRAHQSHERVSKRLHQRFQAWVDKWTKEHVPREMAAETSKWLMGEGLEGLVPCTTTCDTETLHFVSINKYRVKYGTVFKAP", "assay": "ChIP-qPCR of SIN3A at Homer1 in mouse frontal cortex", "assay_type": "in vivo", "procedure": "ChIP assays were performed using the MAGnify ChIP system (ThermoFisher, MA) according to the manufacturer's protocol with a few modifications. A small section (50 mg) of the frontal cortex (FC) was used. Chromatin was sheared with the Covaris® S2 system (Covaris, Woburn, MA) using the following program: duty cycle 5%, intensity 2, 200 cycles per burst, 60 s cycle per time, 20 cycles, temperature 4° C. A volume of 10 μL chromatin was used per sample. A total of 0.5 μg of the anti-H3 antibody (PA5 16183, Invitrogen, Carlsbad, CA), 1 μg of the anti-SIN3A antibody (ab3479, Abcam, Cambridge, MA) or anti-IgG (ab37355, Abcam) was used per sample. Quantitative real-time PCR analysis was performed following magnetic bead-based DNA purification. The DNA samples were amplified in quadruplicate reactions as previously described [Ibi et al 2017] using the QuantStudio 6 Flex Real-Time PCR System (Applied Biosystems) using the PowerUP SYBR Green Master Mix (Applied Biosystems). All primers for ChIP-qPCR are described in FIG. 34."}, "[4]": {"molecular_target": "Sc Sin3 PAH2-Ume6 SID (TAMRA-labeled) interaction (Saccharomyces cerevisiae, UniProt P22579)", "sequence (P22579 402-473)": "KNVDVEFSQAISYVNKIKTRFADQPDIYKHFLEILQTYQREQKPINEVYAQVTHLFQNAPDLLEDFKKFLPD", "assay": "biochemical", "method": "Symbols represent individual data points (A) or means with SEM, and lines fitted curves.\nIC50 determination for unlabeled Ume6 SID, E6, E6R and E6S: the concentrations of FITC-Ume6 SID (30 nM), and GST-Sin3 PAH2 (3 μM) were fixed and the compounds were titrated with an HP D300 (Hewlett-Packard, CA) to the assay plate."}}, "note": "“Also recorded” adds a separate entry of the source.", "data": [{"smiles": "C[C@@H](NC(=O)c1c(O)n2ccccc2nc1=O)c1ccccc1", "note": "[E6R, 4-hydroxy-2-oxo-N—((R)-1-phenylethyl)-3,4-dihydro-2H-pyrido[, 2-a]pyrimidine-3-carboxamide]", "values": [{"measurement": "binding to other PAH domains of human SIN3A and SIN3B by NMR", "setting": "[1]", "value": "can bind"}, {"measurement": "binding to human SIN3B PAH2 by NMR", "setting": "human SIN3B PAH2 domain", "value": "could bind; also recorded: virtually identical to those of yeast Sin3 PAH2"}, {"measurement": "expression levels of tested genes in spleen and frontal cortex", "setting": "[2]", "value": "able to change expression levels"}, {"measurement": "recruitment of SIN3A at Homer1 promoter", "setting": "[3]; HDAC2 cKO mice", "value": "not observed"}, {"measurement": "recruitment of SIN3A at Homer1 promoter", "setting": "[3]; WT mice, chronic 50 mg/kg, vs vehicle", "value": "significantly reduced recruitment; also recorded: significantly reduces"}, {"measurement": "IC50", "setting": "[4]", "value": 63.7, "unit": "µM"}]}]}
